Assay results published in patent US11771765B2, “Light augmented treatment method” (The Procter & Gamble Company, priority 2019, dated 2023).

Tested on: M. furfur
Assay: M. furfur viability on mDixon agar plates after Piroctone Olamine and 409 nm light (Table 3)
Assay type: cell-based, Malassezia furfur
Design: key to growth on mDixon agar plate (score): +: a continuous fungal lawn; +/−: a lawn with breaks allowing the agar to show; −: 0 to 5 colonies
Method: M. furfur is incubated for one hour with the indicated concentrations of Piroctone Olamine then a cell pellet of 4 OD*mL is collected by centrifugation so that most of the anti-fungal material has been removed. The cell pellet is suspended in 4.2 mL PBS and 1 mL samples are distributed to four 12 well plates and treated with light (409 nm, 1200 fc) for 1, 10 or 60 minutes or stored in the dark. Samples are processed as described previously with 600 uL diluted into 13 mL mDixon and 50 uL of the photolyzed cells are diluted into 50 uL of mDixon then three 40 uL+360 uL mDixon dilutions are prepared.
Where +=a continuous fungal lawn, +/−=a lawn with breaks allowing the agar to show, −=0 to 5 colonies
After the photolysis, 0.6 mL is added to 13 mL fresh mDixon and grown overnight but, in addition, 50 uL is added to 50 uL mDixon then that sample is diluted 3 more times 40 uL=>400 uL and 10 uL of each of the dilutions are plated in duplicate on mDixon agar plates.

Cc1cc(CC(C)CC(C)(C)C)n(O)c(=O)c1.NCCO (centres unmarked) [Piroctone Olamine, 1-Hydroxy-4-methyl-6-(2,4,4-trimethylpentyl)-2-pyridone monoethanolamine salt]
effect of light on viable cells (8 ppm): no effect
holding growth down overnight in the original samples (8 ppm): does not hold M. furfur growth down overnight
growth on mDixon agar plate (score) (8 ppm 1 h, culture dilution 1:2, 409 nm light 1 min): +
growth on mDixon agar plate (score) (8 ppm 1 h, culture dilution 1:2, 409 nm light 10 min): +
growth on mDixon agar plate (score) (8 ppm 1 h, culture dilution 1:2, 409 nm light 60 min): +
growth on mDixon agar plate (score) (8 ppm 1 h, culture dilution 1:2, Dark): +
growth on mDixon agar plate (score) (8 ppm 1 h, culture dilution 1:20, 409 nm light 1 min): +
growth on mDixon agar plate (score) (8 ppm 1 h, culture dilution 1:20, 409 nm light 10 min): +
growth on mDixon agar plate (score) (8 ppm 1 h, culture dilution 1:20, 409 nm light 60 min): +
growth on mDixon agar plate (score) (8 ppm 1 h, culture dilution 1:20, Dark): +
growth on mDixon agar plate (score) (8 ppm 1 h, culture dilution 1:200, 409 nm light 1 min): +/−
growth on mDixon agar plate (score) (8 ppm 1 h, culture dilution 1:200, 409 nm light 10 min): +/−
growth on mDixon agar plate (score) (8 ppm 1 h, culture dilution 1:200, 409 nm light 60 min): +/−
growth on mDixon agar plate (score) (8 ppm 1 h, culture dilution 1:200, Dark): +/−
growth on mDixon agar plate (score) (8 ppm 1 h, culture dilution 1:2000, 409 nm light 1 min): +/−
growth on mDixon agar plate (score) (8 ppm 1 h, culture dilution 1:2000, 409 nm light 10 min): +/−
growth on mDixon agar plate (score) (8 ppm 1 h, culture dilution 1:2000, 409 nm light 60 min): +/−
growth on mDixon agar plate (score) (8 ppm 1 h, culture dilution 1:2000, Dark): +/−
holding growth down overnight in the original samples (16 and 32 ppm): 16 and 32 ppm do
fewer viable cells (16 and 32 ppm, 1 minute of light exposure): about 10 fold
fewer cells (16 and 32 ppm, longer light exposures): > 100 fold
growth on mDixon agar plate (score) (16 ppm 1 h, culture dilution 1:2, 409 nm light 1 min): +
growth on mDixon agar plate (score) (16 ppm 1 h, culture dilution 1:2, 409 nm light 10 min): +/−
growth on mDixon agar plate (score) (16 ppm 1 h, culture dilution 1:2, 409 nm light 60 min): +/−
growth on mDixon agar plate (score) (16 ppm 1 h, culture dilution 1:2, Dark): +
growth on mDixon agar plate (score) (16 ppm 1 h, culture dilution 1:20, 409 nm light 1 min): +/−
growth on mDixon agar plate (score) (16 ppm 1 h, culture dilution 1:20, 409 nm light 10 min): +/−
growth on mDixon agar plate (score) (16 ppm 1 h, culture dilution 1:20, 409 nm light 60 min): +/−
growth on mDixon agar plate (score) (16 ppm 1 h, culture dilution 1:20, Dark): +
growth on mDixon agar plate (score) (16 ppm 1 h, culture dilution 1:200, 409 nm light 1 min): +/−
growth on mDixon agar plate (score) (16 ppm 1 h, culture dilution 1:200, 409 nm light 10 min): − (0 to 5 colonies)
growth on mDixon agar plate (score) (16 ppm 1 h, culture dilution 1:200, 409 nm light 60 min): − (0 to 5 colonies)
growth on mDixon agar plate (score) (16 ppm 1 h, culture dilution 1:200, Dark): +/−
growth on mDixon agar plate (score) (16 ppm 1 h, culture dilution 1:2000, 409 nm light 1 min): +/−
growth on mDixon agar plate (score) (16 ppm 1 h, culture dilution 1:2000, 409 nm light 10 min): − (0 to 5 colonies)
growth on mDixon agar plate (score) (16 ppm 1 h, culture dilution 1:2000, 409 nm light 60 min): − (0 to 5 colonies)
growth on mDixon agar plate (score) (16 ppm 1 h, culture dilution 1:2000, Dark): +/−
growth on mDixon agar plate (score) (32 ppm 1 h, culture dilution 1:2, 409 nm light 1 min): +
growth on mDixon agar plate (score) (32 ppm 1 h, culture dilution 1:2, 409 nm light 10 min): +/−
growth on mDixon agar plate (score) (32 ppm 1 h, culture dilution 1:2, 409 nm light 60 min): +/−
growth on mDixon agar plate (score) (32 ppm 1 h, culture dilution 1:2, Dark): +
growth on mDixon agar plate (score) (32 ppm 1 h, culture dilution 1:20, 409 nm light 1 min): +/−
growth on mDixon agar plate (score) (32 ppm 1 h, culture dilution 1:20, 409 nm light 10 min): +/−
growth on mDixon agar plate (score) (32 ppm 1 h, culture dilution 1:20, 409 nm light 60 min): +/−
growth on mDixon agar plate (score) (32 ppm 1 h, culture dilution 1:20, Dark): +
growth on mDixon agar plate (score) (32 ppm 1 h, culture dilution 1:200, 409 nm light 1 min): +/−
growth on mDixon agar plate (score) (32 ppm 1 h, culture dilution 1:200, 409 nm light 10 min): +/−
growth on mDixon agar plate (score) (32 ppm 1 h, culture dilution 1:200, 409 nm light 60 min): − (0 to 5 colonies)
growth on mDixon agar plate (score) (32 ppm 1 h, culture dilution 1:200, Dark): +/−
growth on mDixon agar plate (score) (32 ppm 1 h, culture dilution 1:2000, 409 nm light 1 min): +/−
growth on mDixon agar plate (score) (32 ppm 1 h, culture dilution 1:2000, 409 nm light 10 min): − (0 to 5 colonies)
growth on mDixon agar plate (score) (32 ppm 1 h, culture dilution 1:2000, 409 nm light 60 min): − (0 to 5 colonies)
growth on mDixon agar plate (score) (32 ppm 1 h, culture dilution 1:2000, Dark): +/−
